Measurements from patent publication US11008325B2, “Inhibitors of cancer invasion, attachment, and/or metastasis” (VIRGINIA COMMONWEALTH UNIVERSITY, priority 2016, dated 2021).

Tests used:
U87 cells = assay: trans-well Matrigel invasion assay; type: cell-based, human
Procedure: FIGS. 7A-7B. FIG. 7A. Im-PHFA, primary immortal human fetal astrocyte cells were infected with an MDA-9/Syntenin expression plasmid carrying adenovirus. 48 hrs post-infection both the control and MDA-9/Syntenin overexpressing cells were treated with DMSO or PDZ1i followed by seeding in a trans-well Matrigel invasion assay and stained after 24 hrs. FIG. 7B. T98G and U87 were treated with DMSO or PDZ1i and seeding in a trans-well Matrigel invasion assay and stained after 24 hrs. Invasion was quantified from 4 random fields. Data represents fold changes and average±S.D.
FIGS. 8A-8D. PDZ1i produces similar effects to mda-9/syntenin knockdown post-radiation. FIG. 8A. ImPHFA and U87 cells were treated with 50 μM PDZ1i 2 h prior to radiation and analyzed for colony formation after 14 d. […] U87 cells were treated with 50 μM PDZ1i 2 h prior to radiation and analyzed via MTT assay after 24 h. […] Invasion was quantified from 5 random fields in FIG. 8D. […]
Invasion was measured using 24-well BioCoat cell culture inserts (BD Biosciences, Bedford, Mass.) with an 8-μm-porosity polyethylene terephthalate membrane coated with Matrigel Basement Membrane Matrix (100 μg/cm^2). […] Cells remaining on the upper surface of the filters were removed by wiping with a cotton swab, and invasion was determined by counting the cells that migrated to the lower side of the filter using at least 5 fields per insert at 100× magnification. […]

[1] = molecular target: T1, MDA-9/Syntenin and c-Src interactions (Homo sapiens, UniProt O00560); assay: co-immunoprecipitation in C8161.9 cells; type: cell-based
T1 construct: endogenous in cells; host or cells: C8161.9 melanoma cells
T1 sequence (O00560 2-298 limits assumed): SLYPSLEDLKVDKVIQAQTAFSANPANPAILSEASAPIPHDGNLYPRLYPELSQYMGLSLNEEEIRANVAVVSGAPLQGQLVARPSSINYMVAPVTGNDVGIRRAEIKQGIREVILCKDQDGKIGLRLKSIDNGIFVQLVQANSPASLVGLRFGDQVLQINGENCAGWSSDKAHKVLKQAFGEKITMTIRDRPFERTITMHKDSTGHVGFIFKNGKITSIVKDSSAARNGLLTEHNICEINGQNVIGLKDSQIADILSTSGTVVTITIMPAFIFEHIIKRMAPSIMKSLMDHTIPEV
T1 sequence (P12931 2-536 partner limits assumed): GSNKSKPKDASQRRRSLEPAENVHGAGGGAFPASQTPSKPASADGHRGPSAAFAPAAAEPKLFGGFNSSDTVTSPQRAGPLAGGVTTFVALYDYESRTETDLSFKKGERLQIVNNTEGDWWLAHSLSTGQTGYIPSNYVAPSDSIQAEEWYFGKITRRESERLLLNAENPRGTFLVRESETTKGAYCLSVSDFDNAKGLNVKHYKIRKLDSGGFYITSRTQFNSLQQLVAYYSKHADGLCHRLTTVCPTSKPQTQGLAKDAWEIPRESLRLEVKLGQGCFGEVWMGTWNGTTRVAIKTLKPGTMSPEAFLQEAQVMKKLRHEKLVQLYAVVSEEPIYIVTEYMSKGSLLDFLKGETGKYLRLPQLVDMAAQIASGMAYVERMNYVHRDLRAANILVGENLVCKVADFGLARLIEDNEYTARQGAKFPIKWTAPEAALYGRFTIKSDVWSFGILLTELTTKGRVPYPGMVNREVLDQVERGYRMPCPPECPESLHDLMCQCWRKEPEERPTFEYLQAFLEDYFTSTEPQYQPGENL
Procedure: FIG. 54. Effects of PDZ1in (113B7) on MDA-9/Syntenin and c-Src interactions. C8161.9 cells were pre-treated with either DMSO or a dose of 113B7 (as indicated) and re-plated onto fibronectin-coated plates. After 30 minutes, cell lysates were immunoprecipitated and immuneblotted with the indicated antibodies. IgG, immunoglobulin.
Another fundamental issue that we will address as part of the proposed hit-to-lead optimization process is the specificity of the binding of 113B7 to the PDZ1 domain of MDA-9/Syntenin. […] To determine if the PDZin molecule alters physical binding we performed co-immunoprecipitation analysis with c-Src and MDA-9/Syntenin in the presence or absence of 113B7 (FIG. 54). In the case of 113B7, which binds to PDZ1 and the interdomain of MDA-9/Syntenin, no inhibition of c-Src binding was evident.

RM1-Luc cells = assay: RM1-Luc intracardiac metastasis model; type: in vivo, C57BL/6 mice; conditions: I.P., 3 injections/first week
Procedure: FIG. 19A-19F. PDZ1i suppresses prostate cancer metastasis and tumor progression. FIG. 19A) Survival data for athymic nude mice in which DMSO or PDZ1i pre-treated ARCaPM cells were injected. FIG. 19B) Survival data for athymic nude mice which were injected with (n=5, each group) ARCaPM-Luc (1×10^6 cells in 100 μl saline) through an intracardiac route. Mice received either vehicle or PDZ1i every alternative day (9 injections during the first […]) and maintained until they needed to be euthanized. FIG. 19C) Survival data for C57BL/6 mice injected through the intracardiac route with RM1-Luc. Vehicle or PDZ1i was administered through intraperitoneal injection every alternate day (total 3 injections during the first week). Survival curves were generated using 6 control vehicle-treated and 5 PDZ1i-treated. Kaplan—Meier survival curves were prepared using Graph Pad software. […] Graphical representation of the average prostate weights from control and treated groups. FIG. 19E and FIG. 19F) Photomicrographs representing the histological changes in prostate sections obtained from 6-month old Hi-Myc mice receiving either vehicle (FIG. 19E) or PDZ1i (FIG. 19F). To evaluate potential therapeutic efficacy of PDZ1i four sets of in vivo experiments were conducted. […]

Cc1cc(NC(=O)c2nc3[nH]c4c(c(=O)n3n2)CCC4)c(C)cc1NC(=O)CCc1nnc(-c2ccccc2)o1 [113B7, N-(2,5-dimethyl-4-(3-(5-phenyl-1,3,4-oxadiazol-2-yl)propanamido)phenyl)-8-oxo-5,6,7,8-tetrahydro-4H-cyclopenta[d][1,2,4]triazolo[1,5-a]pyrimidine-2-carboxamide]
radiation-induced invasion gains (U87 cells; 50 μM PDZ1i 2 h prior to 2 and 5 Gy): abolished these invasion gains
invasion (U87 cells; PDZ1i versus DMSO): effectively inhibited invasion
c-Src binding to MDA-9/Syntenin [1]: no inhibition
tumor burden in the lungs (RM1-Luc cells): significantly reduced the tumor burden in the lungs
